Data as given in patent US20210284621A1 (priority 2018, published 2021).
Where two headings read alike, the source gives them in different places.

Legend:
CB2 receptor [1] = molecular target: T1, CB2 receptor (Homo sapiens, UniProt P34972); assay: CB2 competitive radioligand binding assay ([3H] WIN-55,212-2); set-up: expressed in transfected cells; host or cells: CHO-K1 cells; conditions: for inhibition at 0.05 µM: 0.05 μM compound, 2.4 nM [3H] WIN-55,212-2, 90 min 37° C.; for Fold Selectivity (CB1/CB2): Table 3, ratio of Ki CB1/CB2
Method: (§1) J Med Chem. 41(26): 5177-5187 (1998); and Munro S., et al. Molecular characterization of a peripheral receptor for cannabinoids. Nature 365:61-65 (1993).
CB2 Radioligand Binding Assay: A compound of the invention (0.05 μM in 1% DMSO) was incubated with CHO-K1 cells expressing human recombinant CB2 receptor in buffer (20 mM HEPES, pH 7.0, 0.5% BSA) for 90 minutes at 37° C. in the presence of 2.4 nM [H^3] WIN-55,212-2 (CB2 radioligand). % Inhibition was determined as a function of radioligand binding to the […].

CB1 receptor [2] = molecular target: T2, CB1 receptor (Homo sapiens, UniProt P21554); assay: CB1 competitive radioligand binding assay ([3H] SR141716A); set-up: expressed in transfected cells; host or cells: Chem-1 cells; conditions: for inhibition at 0.5 µM: 0.5 μM compound, 2.0 nM [3H] SR141716A, 90 min 37° C.
Method: as §1
CB1 Radioligand Binding Assay: A compound of the invention (0.5 μM in 1% DMSO) was incubated with Chem-1 cells expressing human recombinant CB1 receptor in buffer (50 mM HEPES, pH 7.4, 5 mM MgCl2, 1 mM CaCl2, 0.2% BSA) for 90 minutes at 37° C. in the presence of 2.0 nM [H^3] SR141716A (CB1 radioligand). % Inhibition was determined as a function of radioligand binding to the CB1 receptor.

CB1 receptor [3] = molecular target: T2, CB1 receptor; assay: cell-based; set-up: host or cells: PathHunter cell lines
Method: (§2) The PathHunter® β-Arrestin assay monitors the activation of a GPCR in a homogenous, non-imaging assay format using a technology developed by DiscoverX called Enzyme Fragment Complementation (EFC) with β-galactosidase (3-Gal) as the functional reporter. […] EA is fused to β-Arrestin and PK is fused to the GPCR of interest.
(§3) PathHunter cell lines were expanded from freezer stocks according to standard procedures. Cells were seeded in a total volume of 20 μL into white walled, 384-well microplates and incubated at 37° C. for the appropriate time prior to testing. For agonist activity determination, cells were incubated with sample to induce response. Intermediate dilution of sample stocks was performed to generate 5× sample in assay buffer. 5 μL of 5× sample was added to cells and incubated at 37° C. or room temperature for 90 to 180 minutes. Vehicle concentration was 1%. Assay signal was generated through a single addition of 12.5 or 15 μL (50% v/v) of PathHunter Detection reagent cocktail, followed by a one hour incubation at room temperature. Microplates were read following signal generation with a PerkinElmer Envision™ instrument for chemiluminescent signal detection. Compound activity was analyzed using CBIS data analysis suite (ChemInnovation, CA). For agonist assays, percentage activity was calculated using the following formula: % Activity=100%×(mean RLU of test sample− mean RLU of vehicle control)/(mean MAX control ligand− mean RLU of vehicle control).

CB2 receptor [4] = molecular target: T1, CB2 receptor; assay: cell-based; set-up: host or cells: cAMP Hunter cell lines
Method: as §2, §3

[5] = PathHunter agonist mode, read-out: CB1 Activity (β-Arrestin)
[6] = PathHunter agonist mode, read-out: CB2 Activity (β-Arrestin)

T1 sequence (P34972 whole entry): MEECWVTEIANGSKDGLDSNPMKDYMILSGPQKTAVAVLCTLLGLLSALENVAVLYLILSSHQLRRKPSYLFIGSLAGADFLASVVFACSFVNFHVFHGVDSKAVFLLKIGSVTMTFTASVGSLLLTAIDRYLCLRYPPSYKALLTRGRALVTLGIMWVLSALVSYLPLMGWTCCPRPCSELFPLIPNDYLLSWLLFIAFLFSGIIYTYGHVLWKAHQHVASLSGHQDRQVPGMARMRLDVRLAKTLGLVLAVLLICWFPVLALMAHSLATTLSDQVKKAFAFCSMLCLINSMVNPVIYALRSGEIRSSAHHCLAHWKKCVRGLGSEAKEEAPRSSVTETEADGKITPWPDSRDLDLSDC
T2 sequence (P21554 whole entry): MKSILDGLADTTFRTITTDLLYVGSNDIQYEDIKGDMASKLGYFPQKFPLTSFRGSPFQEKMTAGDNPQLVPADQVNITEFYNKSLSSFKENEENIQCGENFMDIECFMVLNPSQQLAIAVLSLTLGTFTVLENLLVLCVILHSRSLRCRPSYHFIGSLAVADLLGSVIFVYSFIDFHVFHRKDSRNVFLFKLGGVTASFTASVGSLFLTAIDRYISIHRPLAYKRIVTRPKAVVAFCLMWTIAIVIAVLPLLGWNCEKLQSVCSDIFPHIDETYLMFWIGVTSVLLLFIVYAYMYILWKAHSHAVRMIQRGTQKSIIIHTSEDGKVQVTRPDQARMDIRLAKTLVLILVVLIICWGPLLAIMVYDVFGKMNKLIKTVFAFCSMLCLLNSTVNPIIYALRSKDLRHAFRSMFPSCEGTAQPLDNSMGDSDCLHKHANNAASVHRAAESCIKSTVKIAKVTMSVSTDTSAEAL

Compound	inhibition at 0.05 µM (CB2 receptor [1])	Ki (CB2 receptor [1]; Table 2, read-out: CB2 Binding Ki)	inhibition at 0.5 µM (CB1 receptor [2])	Ki (CB1 receptor [2]; Table 2, read-out: CB1 Binding Ki)	EC50 (CB1 receptor [3]; [5])	EC50 (CB2 receptor [4]; [6])	EC50 (CB1 receptor [3])	EC50 (CB2 receptor [4])	Ki (CB2 receptor [1])	Fold Selectivity (CB1/CB2) (CB2 receptor [1])	Ki (CB1 receptor [2])
CCCCCCC(C)(C)c1cc(O)c2c(c1)OC(C)(C)[C@@H]1CC=C(C(=O)NCC(=O)O)C[C@@H]21 [Compound 1, ((6aR,10aR)-1-Hydroxy-6,6-dimethyl-3-(2-methyloctan-2-yl)-6a,7,10,10a-tetrahydro-6H-benzo[c]chromene-9-carbonyl)glycine]	4%	1310 nM	10%	> 3000 nM	> 3000 nM	58 nM					
CCCCCCC(C)(C)c1cc(O)c2c(c1)OC(C)(C)[C@@H]1CC=C(C(=O)N[C@H](C)C(=O)O)C[C@@H]21 [Compound 2, ((6aR,10aR)-1-Hydroxy-6,6-dimethyl-3-(2-methyloctan-2-yl)-6a,7,10,10a-tetrahydro-6H-benzo[c]chromene-9-carbonyl)-D-alanine]	0%		9%		> 3000 nM	> 3000 nM					
CCCCCCC(C)(C)c1cc(O)c2c(c1)OC(C)(C)[C@@H]1CC=C(C(=O)N[C@H](Cc3ccc(O)cc3)C(=O)O)C[C@@H]21 [Compound 3]	8%		13%				> 3000 nM	> 3000 nM			
CCCCCCC(C)(C)c1cc(O)c2c(c1)OC(C)(C)[C@H]1CC=C(C(=O)O)C[C@H]21 [Compound 20, (6aS,10aS)-1-Hydroxy-6,6-dimethyl-3-(2-methyloctan-2-yl)-6a,7,10,10a-tetrahydro-6H-benzo[c]chromene-9-carboxylic acid]	9%		-10%				> 3000 nM	> 3000 nM			
CCCCCCC(C)(C)c1cc(O)c2c(c1)OC(C)(C)[C@@H]1CC=C(C(=O)OCC(O)CO)C[C@@H]21 (stereo partly drawn) [Compound 22, 2,3-Dihydroxypropyl (6aR,10aR)-1-hydroxy-6,6-dimethyl-3-(2-methyloctan-2-yl)-6a,7,10,10a-tetrahydro-6H-benzo[c]chromene-9-carboxylate]	92%		107%			4 nM	42 nM				
CCCCCCC(C)(C)c1cc(O)c2c(c1)OC(C)(C)[C@@H]1CC=C(C(=O)NCCC(=O)O)C[C@@H]21 [Compound 26, 3-((6aR,10aR)-1-Hydroxy-6,6-dimethyl-3-(2-methyloctan-2-yl)-6a,7,10,10a-tetrahydro-6H-benzo[c]chromene-9-carboxamido)propanoic acid]	2%		9%		> 3000 nM	> 3000 nM					
CCCCCCC(C)(C)c1cc(O)c2c(c1)OC(C)(C)[C@@H]1CC=C(C(=O)NC(C)(C)CC(=O)O)C[C@@H]21 [Compound 27, 3-((6aR,10aR)-1-Hydroxy-6,6-dimethyl-3-(2-methyloctan-2-yl)-6a,7,10,10a-tetrahydro-6H-benzo[c]chromene-9-carboxamido)-3-methylbutanoic acid]	7%		9%		> 3000 nM	> 3000 nM					
CCCCCCC(C)(C)C1=CC2=C(C(=O)C1=O)[C@@H]1CC(C(=O)O)=CC[C@H]1C(C)(C)O2 [Compound 30, (6aR,10aR)-6,6-dimethyl-3-(2-methyloctan-2-yl)-1,2-dioxo-2,6,6a,7,10,10a-hexahydro-1H-benzo[c]chromene-9-carboxylic acid]	-2%		19%		> 3000 nM	> 3000 nM					
CC(C)(CCCCCC(=O)O)c1cc(O)c2c(c1)OC(C)(C)[C@@H]1CC=C(C(=O)O)C[C@@H]21 [Compound 40]					> 10000 nM	> 1000 nM					
CCCCCCC(C)(C)c1cc(O)c2c(c1)OC(C)(C)[C@@H]1CC=C(C(=O)NOC(C)(C)C)C[C@@H]21 [Compound 88, (6aR,10aR)-N-(tert-butoxy)-1-hydroxy-6,6-dimethyl-3-(2-methyloctan-2-yl)-6a,7,10,10a-tetrahydro-6H-benzo[c]chromene-9-carboxamide]						1.7 nM	5.9 nM		1 nM	5.7	5.4 nM
CCCCCCC(C)(C)c1cc(O)c2c(c1)OC(C)(C)[C@@H]1CC=C(C(=O)NC3COC3)C[C@@H]21 [Compound 90, (6aR,10aR)-1-hydroxy-6,6-dimethyl-3-(2-methyloctan-2-yl)-N-(oxetan-3-yl)-6a,7,10,10a-tetrahydro-6H-benzo[c]chromene-9-carboxamide]						2.7 nM	128 nM		2.5 nM	4.0	10 nM
CCCCCCC(C)(C)c1cc(O)c2c(c1)OC(C)(C)[C@@H]1CC=C(C(=O)NC3(C(F)(F)F)CCC3)C[C@@H]21 [Compound 96, (6aR,10aR)-1-hydroxy-6,6-dimethyl-3-(2-methyloctan-2-yl)-N-(1-(trifluoromethyl)cyclobutyl)-6a,7,10,10a-tetrahydro-6H-benzo[c]chromene-9-carboxamide]						3 nM	12.8 nM		1.3 nM	19.2	25 nM
CCCC(C)(C)c1cc(O)c2c(c1)OC(C)(C)[C@@H]1CC=C(C(=O)NC3CCCC3)C[C@@H]21 [Compound 97, (6aR,10aR)-N-cyclopentyl-1-hydroxy-6,6-dimethyl-3-(2-methylpentan-2-yl)-6a,7,10,10a-tetrahydro-6H-benzo[c]chromene-9-carboxamide]							> 3000 nM	17.9 nM	72 nM	10.8	780 nM
CCCC(C)(C)c1cc(O)c2c(c1)OC(C)(C)[C@@H]1CC=C(C(=O)NC3(C(F)(F)F)CC3)C[C@@H]21 [Compound 102, (6aR,10aR)-1-hydroxy-6,6-dimethyl-3-(2-methylpentan-2-yl)-N-(1-(trifluoromethyl)cyclopropyl)-6a,7,10,10a-tetrahydro-6H-benzo[c]chromene-9-carboxamide]					> 3000 nM	30.5 nM			51 nM	16.9	860 nM
CCCCCCC(C)(C)c1cc(O)c2c(c1)OC(C)(C)[C@@H]1CC=C(C(=O)NC3CNC3)C[C@@H]21 [Compound 103, (6aR,10aR)-N-(azetidin-3-yl)-1-hydroxy-6,6-dimethyl-3-(2-methyloctan-2-yl)-6a,7,10,10a-tetrahydro-6H-benzo[c]chromene-9-carboxamide]						9.5 nM	1710 nM		51 nM	5.3	270 nM
CCCCCCC(C)(C)c1cc(O)c2c(c1)OC(C)(C)[C@@H]1CC=C(C(=O)N3CCNCC3)C[C@@H]21 [Compound 104, ((6aR,10aR)-1-hydroxy-6,6-dimethyl-3-(2-methyloctan-2-yl)-6a,7,10,10a-tetrahydro-6H-benzo[c]chromen-9-yl)(piperazin-1-yl)methanone]						5 nM	4450 nM		30 nM	8.7	260 nM
CCCCCCC(C)(C)c1cc(O)c2c(c1)OC(C)(C)[C@@H]1CC=C(C(=O)NOC)C[C@@H]21 [Compound 107]					49.4 nM	2.9 nM			4.9 nM	7.4	36.2 nM
CCCCCCC(C)(C)c1cc(O)c2c(c1)OC(C)(C)[C@@H]1CC=C(C(=O)NS(C)(=O)=O)C[C@@H]21 [Compound 108, (6aR,10aR)-1-hydroxy-6,6-dimethyl-3-(2-methyloctan-2-yl)-N-(methylsulfonyl)-6a,7,10,10a-tetrahydro-6H-benzo[c]chromene-9-carboxamide]							1430 nM	29.5 nM	302 nM	>9.9	> 3000 nM
